Test results reported in patent US20170150719A1, “FUNGICIDAL PYRAZOLES AND THEIR MIXTURES” (E I DU PONT DE NEMOURS AND COMPANY, priority 2010, published 2017).
Marks after values point to notes of the source that are not given here.

Tests used:
Septoria tritici = test: Test F: wheat leaf blotch, preventive spray on wheat seedlings, visual disease rating; type: in vivo; set-up: Test F rating (disease control), value marked *: concentration or dose not given beside the values; settings: for Test F rating (% disease control): preventive spray, rating without asterisk; for Test F rating (% disease control) / pest or weed control at 200 µg/mL / Test F rating (disease control): 100 = 100% disease control; for pest or weed control at 200 µg/mL: Zymoseptoria tritici; for pest or weed control at 200 µg/mL / Test F rating (disease control): 0 = no disease control relative to the controls
From the text: (§1) A hyphen (-) indicates no test results.

[1] = system: Puccinia recondita f. sp. tritici; test: Test G: wheat leaf rust, spray after inoculation (curative) on wheat seedlings, visual disease rating; type: in vivo; settings: for Test G rating (% disease control): spray after inoculation, rating without asterisk; for Test G rating (% disease control) / pest or weed control at 200 µg/mL / Test G rating (disease control): 100 = 100% disease control; for pest or weed control at 200 µg/mL / Test G rating (disease control): 0 = no disease control
From the text: as §1

[2] = system: Puccinia recondita f. sp. tritici; test: Test H: wheat leaf rust, preventive spray on wheat seedlings, visual disease rating; settings: for Test H rating (% disease control): preventive spray, rating without asterisk; for Test H rating (% disease control) / pest or weed control at 200 µg/mL / Test H rating (disease control): 100 = 100% disease control; for pest or weed control at 200 µg/mL: read-out: Test H rating (disease control), wheat leaf rust, sprayed the day before inoculation; for pest or weed control at 200 µg/mL / Test H rating (disease control): 0 = no disease control; for Test H rating (disease control): sprayed the day before inoculation
Botrytis cinerea = test: Test A: tomato Botrytis, preventive spray on tomato seedlings, visual disease rating; settings: for Test A rating (% disease control): preventive spray, 0 = no control relative to controls, rating without asterisk; for Test A rating (% disease control) / pest or weed control at 200 µg/mL / Test A rating (disease control): 100 = 100% disease control; for pest or weed control at 200 µg/mL: Botrytis cinerea, in Solanum lycopersicum, read-out: Test A rating (disease control), tomato Botrytis; for pest or weed control at 200 µg/mL / Test A rating (disease control): 0 = no disease control relative to the controls
Alternaria solani = test: Test B: tomato early blight, preventive spray on tomato seedlings, visual disease rating; settings: for Test B rating (% disease control): preventive spray, rating without asterisk; for Test B rating (% disease control) / Test B rating (disease control): 100 = 100% disease control; for pest or weed control at 200 µg/mL: Alternaria solani, in Solanum lycopersicum, read-out: Test B rating (disease control); for Test B rating (disease control): 0 = no disease control relative to the controls
Experimental: General protocol for preparing test suspensions for Tests A-I: the test compounds were first dissolved in acetone in an amount equal to 3% of the final volume and then suspended at the desired concentration (in ppm) in acetone and purified water (50/50 mix by volume) containing 250 ppm of the surfactant Trem® 014 (polyhydric alcohol esters). The resulting test suspensions were then used in Tests A-I. Each test was conducted in triplicate, and the results were averaged. Spraying a 200 ppm test suspension to the point of run-off on the test plants was the equivalent of a rate of about 800 g/ha. Unless otherwise indicated, the rating values indicate a 200 ppm test suspension was used. (An asterisk “*” next to the rating value indicates a 40 ppm test suspension was used.)
The test suspension was sprayed to the point of run-off on tomato seedlings. The following day the seedlings were inoculated with a spore suspension of Alternaria solani (the causal agent of tomato early blight) and incubated in a saturated atmosphere at 27° C. for 48 h, and then moved to a growth chamber at 20° C. for 5 days, after which time visual disease ratings were made.

[3] = system: Blumeria graminis f. sp. tritici; test: Test I: wheat powdery mildew, preventive spray on wheat seedlings, visual disease rating; settings: for Test I rating (% disease control): preventive spray, rating without asterisk; for Test I rating (% disease control) / pest or weed control at 200 µg/mL / Test I rating (disease control): 100 = 100% disease control; for pest or weed control at 200 µg/mL: Blumeria graminis, in Triticum aestivum, read-out: Test I rating (disease control), wheat powdery mildew; for pest or weed control at 200 µg/mL / Test I rating (disease control): 0 = no disease control relative to the controls
Septoria nodorum = test: Test E: Septoria glume blotch, preventive spray on wheat seedlings, visual disease rating; settings: for Test E rating (% disease control): Septoria glume blotch on wheat, preventive spray, rating without asterisk; for Test E rating (% disease control) / pest or weed control at 200 µg/mL / Test E rating (disease control): 100 = 100% disease control; for pest or weed control at 200 µg/mL: Parastagonospora nodorum, in Triticum aestivum, read-out: Test E rating (disease control), Septoria glume blotch; for pest or weed control at 200 µg/mL / Test E rating (disease control): 0 = no disease control relative to the controls

SMILES	Test F rating (% disease control) (Septoria tritici) [%]	Test G rating (% disease control) [1] [%]	Test H rating (% disease control) ([2]; wheat leaf rust) [%]	Test A rating (% disease control) (Botrytis cinerea; tomato Botrytis) [%]	Test B rating (% disease control) (Alternaria solani; tomato early blight) [%]	Test I rating (% disease control) ([3]; wheat powdery mildew) [%]	Test E rating (% disease control) (Septoria nodorum) [%]	Test F rating (disease control) (Septoria tritici) [%]	Test G rating (disease control) ([1]; sprayed after inoculation) [%]	Test H rating (disease control) ([2]; wheat leaf rust) [%]	Test A rating (disease control) (Botrytis cinerea; tomato Botrytis) [%]	Test B rating (disease control) (Alternaria solani; tomato early blight) [%]	Test I rating (disease control) ([3]; wheat powdery mildew) [%]	Test E rating (disease control) (Septoria nodorum; Septoria glume blotch) [%]	also measured
Cc1nn(C)c(Nc2c(F)cc(F)cc2Br)c1-c1ccc(F)cc1I [compound 226]	100	0	99	97	97	100	60	–	–	–	–	–	–	–	–
COc1cc(F)c(-c2c(C)nn(C)c2Nc2ccc(F)cc2F)c(F)c1 [Compound 6, 4-(2,6-difluoro-4-methoxyphenyl)-N-(2,4-difluorophenyl)-1,3-dimethyl-1H-pyrazol-5-amine]	–	–	–	–	–	–	–	–	–	–	–	–	–	–	pest or weed control at 200 µg/mL (Septoria tritici): 93%; pest or weed control at 200 µg/mL ([1]; sprayed after inoculation): 92%; pest or weed control at 200 µg/mL [2]: 100%; pest or weed control at 200 µg/mL (Botrytis cinerea): 98%; pest or weed control at 200 µg/mL (Alternaria solani): 100%; pest or weed control at 200 µg/mL [3]: 100%; pest or weed control at 200 µg/mL (Septoria nodorum): 99%
COc1ccc(-c2c(C)nn(C)c2Nc2c(F)cc(F)cc2I)c(Cl)c1 [compound 219]	100	99	100	100	100	99	100	–	–	–	–	–	–	–	–
Cc1nn(C)c(Nc2ccc(F)cc2Cl)c1-c1c(F)cccc1Cl [Compound 58, N-(2-chloro-4-fluorophenyl)-4-(2-chloro-6-fluorophenyl)-1,3-dimethyl-1H-pyrazol-5-amine]	–	–	–	–	–	–	–	–	–	–	–	–	–	–	pest or weed control at 200 µg/mL (Septoria tritici): 100%; pest or weed control at 200 µg/mL ([1]; sprayed after inoculation): 32%; pest or weed control at 200 µg/mL [2]: 99%; pest or weed control at 200 µg/mL (Botrytis cinerea): 99%; pest or weed control at 200 µg/mL (Alternaria solani): 100%; pest or weed control at 200 µg/mL [3]: 100%; pest or weed control at 200 µg/mL (Septoria nodorum): 0%
Cc1nn(C)c(Nc2c(Cl)cc(F)cc2Cl)c1-c1ccc(Cl)cc1F [compound 227]	100	0	95	0	0	96	0	–	–	–	–	–	–	–	–
Cc1nn(C)c(Nc2ccc(F)cc2F)c1-c1ccc(C#N)cc1Cl [compound 107]	–	–	–	–	–	–	–	100	8	100	100	80	97	73	–
Cc1nn(C)c(Oc2c(F)cc(C#N)cc2F)c1-c1c(F)cc(F)cc1F [Compound 8, 4-[[1,3-dimethyl-4-(2,4,6-trifluorophenyl)-1H-pyrazol-5-yl]oxy]-3,5-difluorobenzonitrile]	–	–	–	–	–	–	–	–	–	–	–	–	–	–	Test F rating (disease control), value marked * (Septoria tritici; rating marked with asterisk (*), other test condition, not explained in the text shown): 47* %; Test G rating (disease control), value marked * ([1]; sprayed after inoculation, rating marked with asterisk (*), not explained in the text shown): 15* %; Test H rating (disease control), value marked * ([2]; wheat leaf rust, preventive, rating marked with asterisk (*), not explained in the text shown): 79* %; Test A rating (disease control), value marked * (Botrytis cinerea; tomato Botrytis, rating marked with asterisk (*), other test condition, not explained in the text shown): 99* %; Test B rating (disease control), value marked * (Alternaria solani; tomato early blight, rating marked with asterisk (*), other test condition, not explained in the text shown): 98* %; Test I rating (disease control), value marked * ([3]; wheat powdery mildew, rating marked with asterisk (*), not explained in the text shown): 60* %; Test E rating (disease control), value marked * (Septoria nodorum; Septoria glume blotch, rating marked with asterisk (*), other test condition, not explained in the text shown): 0* %
Cc1nn(C)c(Nc2c(F)cc(C#N)cc2F)c1-c1c(F)cccc1F [compound 90]	–	–	–	–	–	–	–	100	0	98	99	87	99	87	–
Cc1nn(C)c(Nc2c(F)cc(Br)cc2Br)c1-c1ccc(F)cc1F [compound 211]	100	82	100	98	99	100	99	–	–	–	–	–	–	–	–
Cc1nn(C)c(Nc2c(F)cc(Br)cc2Br)c1-c1ccc(F)cc1Cl [compound 212]	100	97	100	98	100	100	100	–	–	–	–	–	–	–	–
Cc1nn(C)c(Nc2c(Cl)cc(Br)cc2Cl)c1-c1ccc(F)cc1Cl [compound 164]	–	–	–	–	–	–	–	100	99	100	99	0	99	0	–
COc1cc(F)c(-c2c(C)nn(C)c2Nc2ccc(C#N)cc2Cl)c(F)c1 [compound 32]	–	–	–	–	–	–	–	100	11	98	99	97	97	82	–
Cc1nn(C)c(Nc2c(F)cc(F)cc2F)c1-c1ccccc1Br [compound 70]	–	–	–	–	–	–	–	100	0	99	99	26	100	73	–
COc1ccc(Nc2c(-c3ccc(F)cc3F)c(C)nn2C)c(Cl)c1 [compound 66]	–	–	–	–	–	–	–	100	0	91	99	37	100	0	–
Cc1nn(C)c(Nc2c(F)cc(F)cc2Cl)c1-c1ccc(Cl)cc1F [compound 228]	100	0	96	68	40	81	0	–	–	–	–	–	–	–	–
